Patent publication US20120121591A1 (priority 2009, published 2012)
Where two headings read alike, the source gives them in different places.

Key:
Type in all cases: cell-based
[1] = tested on: IL-2 secretion from T cells in human whole blood; settings: read-out: WB (IL-2) IC50 (nM, Avg)
[2] = tested on: IFN-g secretion from T cells in human whole blood
[3] = molecular target: hKv1.3 (Homo sapiens, UniProt P22001); test: cell-based
[4] = read-out: WB (IFNg) IC50 (nM, Avg)

Sequence of hKv1.3 (P22001 whole entry): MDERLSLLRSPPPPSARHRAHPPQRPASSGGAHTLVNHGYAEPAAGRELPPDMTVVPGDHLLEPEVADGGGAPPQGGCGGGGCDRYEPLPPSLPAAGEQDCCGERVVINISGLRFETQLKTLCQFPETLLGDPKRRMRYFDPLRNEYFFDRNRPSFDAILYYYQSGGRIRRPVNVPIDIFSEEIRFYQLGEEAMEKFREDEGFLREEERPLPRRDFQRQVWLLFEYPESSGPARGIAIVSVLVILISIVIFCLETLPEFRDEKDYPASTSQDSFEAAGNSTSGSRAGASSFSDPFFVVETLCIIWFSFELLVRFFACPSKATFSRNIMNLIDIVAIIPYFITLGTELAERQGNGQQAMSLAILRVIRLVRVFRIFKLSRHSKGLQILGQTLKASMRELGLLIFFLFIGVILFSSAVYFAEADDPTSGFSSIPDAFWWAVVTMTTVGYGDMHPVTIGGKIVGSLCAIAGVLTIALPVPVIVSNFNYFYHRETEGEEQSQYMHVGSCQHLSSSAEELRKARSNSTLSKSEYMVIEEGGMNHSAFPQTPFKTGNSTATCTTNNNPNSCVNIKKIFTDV

Compound	IC50 [1]	IC50 [2, 4]	IC50 ([3]; Kv1.3 (IWQ) IC50 (nM, Avg))	IC50 ([3]; read-out: Kv1.3 (IWQ) IC50 (nM, Avg))	IC50 ([2]; read-out: WB (IFNg) IC5- (nM, Avg))
CCC[C@@H]1NC(=O)[C@H](CO)NC(=O)[C@H](Cc2c[nH]cn2)NC(=O)[C@H](CCCCN)NC(=O)[C@@H]2CSSC[C@@H]3NC(=O)[C@H]([C@@H](C)O)NC(=O)[C@H](CCCCN)NC(=O)[C@H](CCCNC(=N)N)NC(=O)[C@H](CSSC[C@H](NC(=O)[C@H](CCCNC(=N)N)NC(=O)[C@H](CO)NC(=O)[C@H](CCCCN)NC(=O)[C@@H]4CCCN4C(=O)[C@H]([C@@H](C)CC)NC(=O)[C@H]([C@@H](C)O)NC(=O)[C@H](CC(=O)O)NC(=O)[C@H]([C@@H](C)CC)NC(=O)[C@@H](NC(=O)[C@H](CO)NC(=O)[C@@H](N)CCCNC(=N)N)CSSC[C@@H](C(=O)N[C@@H](CO)C(N)=O)NC(=O)[C@H]([C@@H](C)O)NC(=O)CNC3=O)C(=O)N[C@@H]([C@@H](C)O)C(=O)N[C@@H](C)C(=O)N[C@@H](Cc3ccccc3)C(=O)N[C@@H](CCCCN)C(=O)N2)NC(=O)[C@H](Cc2ccccc2)NC(=O)[C@H](CO)NC(=O)[C@H](CC(C)C)NC(=O)[C@H](CCCNC(=N)N)NC(=O)[C@H](Cc2ccc(O)cc2)NC(=O)[C@H](CCCCN)NC1=O [[Lys16,Nva21]ShK-Ser-amide]	0.467 nM	0.662 nM	0.09 nM		
CC[C@H](C)[C@@H]1NC(=O)[C@@H](NC(=O)[C@H](CO)NC(=O)[C@@H](N)CCCNC(=N)N)CSSC[C@@H](C(N)=O)NC(=O)[C@H]([C@@H](C)O)NC(=O)CNC(=O)[C@@H]2CSSC[C@@H]3NC(=O)[C@H](CCCCN)NC(=O)[C@H](Cc4ccccc4)NC(=O)[C@H](C)NC(=O)[C@H]([C@@H](C)O)NC(=O)[C@H](CSSC[C@H](NC(=O)[C@H](Cc4ccccc4)NC(=O)[C@H](CO)NC(=O)[C@H](CC(C)C)NC(=O)[C@H](CCCNC(=N)N)NC(=O)[C@H](Cc4ccc(O)cc4)NC(=O)[C@H](CCCCN)NC(=O)[C@H](CCSC)NC(=O)[C@H](CO)NC(=O)[C@H](Cc4c[nH]cn4)NC(=O)[C@H](CCCCN)NC3=O)C(=O)N[C@@H](CCCNC(=N)N)C(=O)N[C@@H](CCC(=O)O)C(=O)N[C@@H]([C@@H](C)O)C(=O)N2)NC(=O)[C@H](CCCNC(=N)N)NC(=O)[C@H](CO)NC(=O)[C@H](CCCCN)NC(=O)[C@@H]2CCCN2C(=O)[C@H]([C@@H](C)CC)NC(=O)[C@H]([C@@H](C)O)NC(=O)[C@H](CC(=O)O)NC1=O [[Lys16, Glu30]ShK-amide]	0.105 nM	0.144 nM	0.028 nM		
CCCC[C@@H]1NC(=O)[C@H](CO)NC(=O)[C@H](Cc2c[nH]cn2)NC(=O)[C@H](CCC(=O)O)NC(=O)[C@@H]2CSSC[C@@H]3NC(=O)[C@H]([C@@H](C)O)NC(=O)[C@H](CCCCN)NC(=O)[C@H](CCCNC(=N)N)NC(=O)[C@H](CSSC[C@H](NC(=O)[C@H](CCCNC(=N)N)NC(=O)[C@H](CO)NC(=O)[C@H](CCCCN)NC(=O)[C@@H]4CCCN4C(=O)[C@H]([C@@H](C)CC)NC(=O)[C@H]([C@@H](C)O)NC(=O)[C@H](CC(=O)O)NC(=O)[C@H]([C@@H](C)CC)NC(=O)[C@@H](NC(=O)[C@H](CO)NC(=O)[C@@H](N)CCCNC(=N)N)CSSC[C@@H](C(N)=O)NC(=O)[C@H]([C@@H](C)O)NC(=O)CNC3=O)C(=O)N[C@@H]([C@@H](C)O)C(=O)N[C@@H](C)C(=O)N[C@@H](Cc3ccccc3)C(=O)N[C@@H](CCCCN)C(=O)N2)NC(=O)[C@H](Cc2ccccc2)NC(=O)[C@H](CO)NC(=O)[C@H](CC(C)C)NC(=O)[C@H](CCCNC(=N)N)NC(=O)[C@H](Cc2ccc(O)cc2)NC(=O)[C@H](CCCCN)NC1=O [[Lys16,Glu18,Nle21]ShK-amide]	0.477 nM	0.929 nM	0.28 nM		
30kDaPEG-ShK	0.372 nM	2.42 nM		1.93 nM	
CC[C@H](C)[C@@H]1NC(=O)[C@@H](NC(=O)[C@H](CO)NC(=O)[C@@H](N)CCCNC(=N)N)CSSC[C@@H](C(N)=O)NC(=O)[C@H]([C@@H](C)O)NC(=O)CNC(=O)[C@@H]2CSSC[C@@H]3NC(=O)[C@H](CCCCN)NC(=O)[C@H](C)NC(=O)[C@H](C)NC(=O)[C@H]([C@@H](C)O)NC(=O)[C@H](CSSC[C@H](NC(=O)[C@H](Cc4ccccc4)NC(=O)[C@H](CO)NC(=O)[C@H](CC(C)C)NC(=O)[C@H](CCCNC(=N)N)NC(=O)[C@H](Cc4ccc(O)cc4)NC(=O)[C@H](CCCCN)NC(=O)[C@H](CCSC)NC(=O)[C@H](CO)NC(=O)[C@H](Cc4c[nH]cn4)NC(=O)[C@H](CCCCN)NC3=O)C(=O)N[C@@H](CCCNC(=N)N)C(=O)N[C@@H](CCCCN)C(=O)N[C@@H]([C@@H](C)O)C(=O)N2)NC(=O)[C@H](CCCNC(=N)N)NC(=O)[C@H](CO)NC(=O)[C@H](CCCCN)NC(=O)[C@@H]2CCCN2C(=O)[C@H]([C@@H](C)CC)NC(=O)[C@H]([C@@H](C)O)NC(=O)[C@H](CC(=O)O)NC1=O [[Ala15,Lys16]ShK-amide]	0.167 nM	0.193 nM	0.091 nM		
CC[C@H](C)[C@@H]1NC(=O)[C@@H](NC(=O)[C@H](CO)NC(=O)[C@@H](N)CCCNC(=N)N)CSSC[C@@H](C(=O)O)NC(=O)[C@H]([C@@H](C)O)NC(=O)CNC(=O)[C@@H]2CSSC[C@@H]3NC(=O)[C@H](CCC(N)=O)NC(=O)[C@H](Cc4ccccc4)NC(=O)[C@H](C)NC(=O)[C@H]([C@@H](C)O)NC(=O)[C@H](CSSC[C@H](NC(=O)[C@H](Cc4ccccc4)NC(=O)[C@H](CO)NC(=O)[C@H](CC(C)C)NC(=O)[C@H](CCCNC(=N)N)NC(=O)[C@H](Cc4ccc(O)cc4)NC(=O)[C@H](CCCCN)NC(=O)[C@H](CCSC)NC(=O)[C@H](CO)NC(=O)[C@H](Cc4c[nH]cn4)NC(=O)[C@H](CCCCN)NC3=O)C(=O)N[C@@H](CCCNC(=N)N)C(=O)N[C@@H](CCC(=O)O)C(=O)N[C@@H]([C@@H](C)O)C(=O)N2)NC(=O)[C@H](CCCNC(=N)N)NC(=O)[C@H](CO)NC(=O)[C@H](CCCCN)NC(=O)[C@@H]2CCCN2C(=O)[C@H]([C@@H](C)CC)NC(=O)[C@H]([C@@H](C)O)NC(=O)[C@H](CC(=O)O)NC1=O [[Glu30]ShK]	0.019 nM		0.272 nM		0.043 nM
CC[C@H](C)[C@@H]1NC(=O)[C@@H](NC(=O)[C@H](CO)NC(=O)[C@@H](N)CCCNC(=N)N)CSSC[C@@H](C(=O)O)NC(=O)[C@H]([C@@H](C)O)NC(=O)CNC(=O)[C@@H]2CSSC[C@@H]3NC(=O)[C@H](CCC(N)=O)NC(=O)[C@H](Cc4ccccc4)NC(=O)[C@H](C)NC(=O)[C@H]([C@@H](C)O)NC(=O)[C@H](CSSC[C@H](NC(=O)[C@H](Cc4ccccc4)NC(=O)[C@H](CO)NC(=O)[C@H](CC(C)C)NC(=O)[C@H](CCCNC(=N)N)NC(=O)[C@H](Cc4ccc(O)cc4)NC(=O)[C@H](CCCCN)NC(=O)[C@H](CCSC)NC(=O)[C@H](CO)NC(=O)[C@H](Cc4c[nH]cn4)NC(=O)[C@H](CCCCN)NC3=O)C(=O)N[C@@H](CCCNC(=N)N)C(=O)N[C@@H](CCCCN)C(=O)N[C@@H]([C@@H](C)O)C(=O)N2)NC(=O)[C@H](CCCNC(=N)N)NC(=O)[C@H](CO)NC(=O)[C@H](CCCCN)NC(=O)[C@@H]2CCCN2C(=O)[C@H]([C@@H](C)CC)NC(=O)[C@H]([C@@H](C)O)NC(=O)[C@H](Cc2cccc3ccccc23)NC1=O [[1-Nal5]ShK]	70.4 nM	31.9 nM	3.3 nM		
CC[C@H](C)[C@@H]1NC(=O)[C@@H](NC(=O)[C@H](CO)NC(=O)[C@@H](N)CCCNC(=N)N)CSSC[C@@H](C(N)=O)NC(=O)[C@H]([C@@H](C)O)NC(=O)CNC(=O)[C@@H]2CSSC[C@@H]3NC(=O)[C@H](CCCCN)NC(=O)[C@H](Cc4ccccc4)NC(=O)[C@H](C)NC(=O)[C@H]([C@@H](C)O)NC(=O)[C@H](CSSC[C@H](NC(=O)[C@H](Cc4ccccc4)NC(=O)[C@H](CO)NC(=O)[C@H](CC(C)C)NC(=O)[C@H](CCCNC(=N)N)NC(=O)[C@H](Cc4ccc(O)cc4)NC(=O)[C@H](CCCCN)NC(=O)[C@H](C4CCCCC4)NC(=O)[C@H](CO)NC(=O)[C@H](Cc4c[nH]cn4)NC(=O)[C@H](CCCCN)NC3=O)C(=O)N[C@@H](CCCNC(=N)N)C(=O)N[C@@H](CCCCN)C(=O)N[C@@H]([C@@H](C)O)C(=O)N2)NC(=O)[C@H](CCCNC(=N)N)NC(=O)[C@H](CO)NC(=O)[C@H](CCCCN)NC(=O)[C@@H]2CCCN2C(=O)[C@H]([C@@H](C)CC)NC(=O)[C@H]([C@@H](C)O)NC(=O)[C@H](CC(=O)O)NC1=O [[Lys16, Chg21]ShK-amide]	0.875 nM	0.727 nM	0.205 nM		
CC[C@H](C)[C@@H]1NC(=O)[C@@H](NC(=O)[C@H](CO)NC(=O)[C@@H](N)CCCNC(=N)N)CSSC[C@@H](C(=O)O)NC(=O)[C@H]([C@@H](C)O)NC(=O)CNC(=O)[C@@H]2CSSC[C@@H]3NC(=O)[C@H](CCCCN)NC(=O)[C@H](C)NC(=O)[C@H](C)NC(=O)[C@H]([C@@H](C)O)NC(=O)[C@H](CSSC[C@H](NC(=O)[C@H](Cc4ccccc4)NC(=O)[C@H](CO)NC(=O)[C@H](CC(C)C)NC(=O)[C@H](CCCNC(=N)N)NC(=O)[C@H](Cc4ccc(O)cc4)NC(=O)[C@H](CCCCN)NC(=O)[C@H](CCSC)NC(=O)[C@H](CO)NC(=O)[C@H](Cc4c[nH]cn4)NC(=O)[C@H](CCCCN)NC3=O)C(=O)N[C@@H](CCCNC(=N)N)C(=O)N[C@@H](CCCCN)C(=O)N[C@@H]([C@@H](C)O)C(=O)N2)NC(=O)[C@H](CCCNC(=N)N)NC(=O)[C@H](CO)NC(=O)[C@H](CCCCN)NC(=O)[C@@H]2CCCN2C(=O)[C@H]([C@@H](C)CC)NC(=O)[C@H]([C@@H](C)O)NC(=O)[C@H](CC(=O)O)NC1=O [[Ala15, Lys16]ShK]	0.057 nM	0.052 nM	0.96 nM		
